According to patent US12037344B2, “NLRP3 modulators” (INNATE TUMOR IMMUNITY, INC., priority 2018, dated 2024):
Where a name gives a salt, the structure may show the parent alone. Read-outs that look alike come from different tables or passages of the source.

Tests used:
TLR7 = molecular target: T1, TLR7 (Homo sapiens, UniProt Q9NYK1); test: In vitro human TLR7 binding reporter assay (HEK-Blue, NF-kB/AP1-inducible SEAP); format: cell-based; conditions: read-out: TLR7 Agonist EC50
T1 construct: human HEK-Blue cells co-expressing a TLR7 or TLR8 gene
T1 sequence (Q9NYK1 27-1049): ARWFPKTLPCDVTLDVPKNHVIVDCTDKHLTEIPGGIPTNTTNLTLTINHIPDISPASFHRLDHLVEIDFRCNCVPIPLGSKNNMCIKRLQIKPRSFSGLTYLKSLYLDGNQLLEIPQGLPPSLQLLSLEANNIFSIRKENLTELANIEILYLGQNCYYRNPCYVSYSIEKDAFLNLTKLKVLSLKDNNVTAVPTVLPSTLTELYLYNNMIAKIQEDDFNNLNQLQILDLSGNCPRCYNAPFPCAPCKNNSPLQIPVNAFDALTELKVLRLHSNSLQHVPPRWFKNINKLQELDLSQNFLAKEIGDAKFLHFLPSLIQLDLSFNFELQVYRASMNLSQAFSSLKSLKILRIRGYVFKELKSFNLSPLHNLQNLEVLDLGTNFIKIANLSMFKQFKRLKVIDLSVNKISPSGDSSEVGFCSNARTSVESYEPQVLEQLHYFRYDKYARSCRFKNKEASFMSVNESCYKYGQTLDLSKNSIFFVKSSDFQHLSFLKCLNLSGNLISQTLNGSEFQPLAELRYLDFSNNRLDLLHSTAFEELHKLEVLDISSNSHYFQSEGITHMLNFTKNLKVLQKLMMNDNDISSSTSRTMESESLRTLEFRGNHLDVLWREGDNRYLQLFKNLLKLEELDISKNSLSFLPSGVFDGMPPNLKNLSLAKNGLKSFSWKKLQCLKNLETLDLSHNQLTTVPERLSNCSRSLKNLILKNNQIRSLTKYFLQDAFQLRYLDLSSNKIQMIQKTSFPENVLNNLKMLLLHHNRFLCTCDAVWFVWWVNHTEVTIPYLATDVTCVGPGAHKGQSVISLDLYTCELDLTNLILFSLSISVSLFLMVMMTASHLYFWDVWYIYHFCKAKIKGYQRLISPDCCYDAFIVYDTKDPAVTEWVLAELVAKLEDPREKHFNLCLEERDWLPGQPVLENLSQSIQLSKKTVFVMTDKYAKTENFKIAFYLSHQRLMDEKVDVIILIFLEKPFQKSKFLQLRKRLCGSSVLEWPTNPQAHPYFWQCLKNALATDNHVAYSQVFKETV
Method in brief: (§1)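 Cells are seeded and grown for 24 h. Compounds or DMSO are then added and incubated 18 h at 37 °C. Quanti-Blue is added, and SEAP is read after thirty minutes. EC50 values are normalized, with RLU from 50 μM reference standard setting 100% Ymax.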

THP-1 cells = test: Measurement of IL-1β production, hTRF protocol (second alternative procedure), THP-1 cells; format: cell-based, human; conditions: read-out: NLRP3 hILIB EC50
Method in brief: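 THP-1 cells differentiated overnight with 50 ng/ml PMA, then plated at 50,000 cells/well in RPMI with 2% FBS onto serial compound dilutions (top final concentration 10 μM) for 2 hours at 37° C. Supernatant IL-1β measured by hTRF (antibodies at 1:40, overnight at 4° C), read at 665/615 nm against a standard curve.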

TLR8 = molecular target: T2, TLR8 (Homo sapiens, UniProt Q9NR97); test: In vitro human TLR8 binding reporter assay (HEK-Blue, NF-kB/AP1-inducible SEAP); format: cell-based; conditions: read-out: TLR8 Agonist EC50
T2 construct: human HEK-Blue cells co-expressing a TLR7 or TLR8 gene
T2 sequence (Q9NR97 27-1041): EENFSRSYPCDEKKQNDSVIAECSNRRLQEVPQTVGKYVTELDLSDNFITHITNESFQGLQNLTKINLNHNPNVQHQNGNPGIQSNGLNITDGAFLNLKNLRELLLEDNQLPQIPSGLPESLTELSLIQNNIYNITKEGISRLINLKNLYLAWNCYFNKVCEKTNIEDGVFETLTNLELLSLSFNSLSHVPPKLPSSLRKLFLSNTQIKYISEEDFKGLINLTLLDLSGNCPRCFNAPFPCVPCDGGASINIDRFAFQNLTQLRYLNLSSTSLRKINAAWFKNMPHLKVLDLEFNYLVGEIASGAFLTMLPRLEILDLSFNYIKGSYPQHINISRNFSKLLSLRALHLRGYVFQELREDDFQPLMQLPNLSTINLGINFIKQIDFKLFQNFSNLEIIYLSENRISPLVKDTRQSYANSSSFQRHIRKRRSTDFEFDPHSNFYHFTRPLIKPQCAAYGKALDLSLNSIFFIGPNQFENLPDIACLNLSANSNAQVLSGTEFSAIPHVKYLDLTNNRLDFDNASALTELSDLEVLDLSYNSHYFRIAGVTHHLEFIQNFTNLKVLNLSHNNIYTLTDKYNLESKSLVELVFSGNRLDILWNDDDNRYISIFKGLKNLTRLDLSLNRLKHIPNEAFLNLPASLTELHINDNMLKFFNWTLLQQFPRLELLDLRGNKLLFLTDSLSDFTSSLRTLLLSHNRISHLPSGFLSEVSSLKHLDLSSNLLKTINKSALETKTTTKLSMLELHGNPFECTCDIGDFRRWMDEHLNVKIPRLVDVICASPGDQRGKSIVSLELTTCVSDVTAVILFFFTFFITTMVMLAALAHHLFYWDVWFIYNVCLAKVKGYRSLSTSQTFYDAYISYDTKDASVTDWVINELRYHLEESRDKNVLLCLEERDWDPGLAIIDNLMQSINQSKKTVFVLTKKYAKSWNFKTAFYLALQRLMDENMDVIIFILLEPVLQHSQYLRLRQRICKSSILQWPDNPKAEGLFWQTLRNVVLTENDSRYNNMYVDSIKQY
Method in brief: as §1

[1] = Homo sapiens, THP-1, IL-1β production, human cells
[2] = Homo sapiens, THP-1, IL-1β production, human

Row | SMILES | EC50 (TLR7; activity range class) | EC50 (THP-1 cells; IL-1β production, human) | EC50 (TLR8; activity range class) | EC50 (TLR7; activity range) | EC50 (THP-1 cells; [1]) | EC50 (TLR8; activity range) | EC50 (THP-1 cells; [2])
1 | Nc1nc2cc(-c3cc[nH]n3)ccc2c2nn(C3CCCC3O)cc12 (single isomer, unassigned) [Example 316] | > 100 µM | 0.89 µM | > 100 µM |  |  |  | 
2 | Nc1nc2cc(-c3cc[nH]n3)ccc2c2[nH]c(CNC(=O)C3CCCO3)cc12 (stereo not drawn) [Example 412] |  |  |  | > 100 µM | 1.87 µM | > 100 µM | 
3 | CN(C)C(=O)Cn1cc2c(N)nc3cc(-c4cc[nH]n4)ccc3c2n1 [Example 458, 2-(4-amino-7-(1H-pyrazol-5-yl)-2H-pyrazolo[4,3-c]quinolin-2-yl)-N,N-dimethylacetamide.TFA] |  |  |  | > 100 µM | 0.16 µM | > 100 µM | 
4 | C[C@@H](Cn1cc2c(n1)c(N)nc1cc(-c3cc[nH]n3)ccc12)NS(C)(=O)=O [Example 531] |  |  |  | > 100 µM | 1.68 µM | > 100 µM | 
5 | CCCCn1cc2c(n1)c(N)nc1cc(-c3ccn[nH]3)ccc12 [Example 186] | 1 to 20 µM |  | > 100 µM |  |  |  | 0.21 µM
6 | Cn1cnc(C(=O)NCCc2cc3c(N)nc4cc(-c5cc[nH]n5)ccc4c3[nH]2)c1 [Example 518] |  |  |  | > 100 µM | 0.53 µM | > 100 µM | 
7 | CC(C(=O)N1CCOCC1)n1cc2c(N)nc3cc(-c4ccn[nH]4)ccc3c2n1 (stereo not drawn) [Example 570] |  |  |  | > 100 µM | 5.13 µM | > 100 µM | 
8 | CCNC(=O)Cn1cc2c(n1)c(N)nc1cc(-c3cc[nH]n3)ccc12 [Example 24] | > 100 µM |  | > 100 µM |  |  |  | 2.9 µM
9 | Nc1nc2cc(-c3cc[nH]n3)ccc2c2cn(CCNC(=O)c3cccc(Cl)c3)nc12 [Example 82] | > 100 µM |  | 20 to 100 µM |  |  |  | 0.73 µM
10 | CC(C)NC(=O)C(C)(C)Cn1cc2c(N)nc3cc(-c4ccn[nH]4)ccc3c2n1 [Example 603] |  |  |  | > 100 µM | 3.05 µM | > 100 µM | 
11 | CC(C)(Cn1cc2c(N)nc3cc(-c4ccn[nH]4)ccc3c2n1)C(=O)N1CC(F)(F)C1 [Example 599] |  |  |  | > 100 µM | 2.18 µM | > 100 µM | 
12 | COc1ccc(CC(=O)NCCn2cc3c(n2)c(N)nc2cc(-c4cc[nH]n4)ccc23)cc1 [Example 32] | 1 to 20 µM |  | > 100 µM |  |  |  | 14.7 µM
13 | Nc1nc2cc(-c3cc[nH]n3)ccc2c2cn(CCN3Cc4ccccc4C3=O)nc12 [Example 102, 2-{2-[4-amino-7-(1H-pyrazol-3-yl)-2H-pyrazolo[3,4-c]quinolin-2-yl]ethyl}-2,3-dihydro-1H-isoindol-1-one] | 20 to 100 µM |  | 20 to 100 µM |  |  |  | 0.41 µM
14 | Cc1cc(Cn2cc3c(N)nc4cc(-c5cc[nH]n5)ccc4c3n2)no1 [Example 226] | > 100 µM |  | > 100 µM |  |  |  | 0.44 µM
15 | Nc1nc2cc(-c3cc[nH]n3)ccc2c2cn(CCNC(=O)c3ccc(F)c(Cl)n3)nc12 [Example 89] | > 100 µM |  | 1 to 20 µM |  |  |  | 0.12 µM
16 | Nc1nc2cc(-c3cc[nH]n3)ccc2c2cn(CCNC(=O)c3ncccc3Cl)nc12 [Example 92] | > 100 µM |  | > 100 µM |  |  |  | 1.07 µM

Row | SMILES | EC50 (TLR7; activity range class) | EC50 (THP-1 cells; IL-1β production, human) | EC50 (TLR8; activity range class) | EC50 (TLR7; activity range) | EC50 (THP-1 cells; [1]) | EC50 (TLR8; activity range) | EC50 (THP-1 cells; [2])
17 | Nc1nc2cc(-c3cc[nH]n3)ccc2c2c1cnn2C1CCOCC1 [Example 311] | > 100 µM |  | > 100 µM |  |  |  | 0.71 µM
18 | CC(CCO)n1cc2c(N)nc3cc(-c4cc[nH]n4)ccc3c2n1 (single isomer, unassigned) [Example 288, 3-(4-amino-7-(1H-pyrazol-3-yl)-2H-pyrazolo[4,3-c]quinolin-2-yl)butan-1-ol] | > 100 µM | 0.45 µM | > 100 µM |  |  |  | 
19 | COCCCCn1cc2c(N)nc3cc(-c4cc[nH]n4)ccc3c2n1 [Example 218] | > 100 µM |  | > 100 µM |  |  |  | 0.2 µM
20 | CO[C@@H](CO)Cn1cc2c(N)nc3cc(-c4cc[nH]n4)ccc3c2n1 [Example 289, (2R)-3-[4-amino-7-(1H-pyrazol-3-yl)-2H-pyrazolo[4,3-c]quinolin-2-yl]-2-methoxypropan-1-ol, HCl] | 1 to 20 µM | 0.28 µM | > 100 µM |  |  |  | 
21 | C[C@@H](O)Cn1cc2c(N)nc3cc(-c4cc[nH]n4)ccc3c2n1 [Example 370] | > 100 µM |  | > 100 µM |  |  |  | 0.38 µM
22 | CC(Cn1cc2c(n1)c(N)nc1cc(-c3cc[nH]n3)ccc12)C(=O)N1CCOCC1 (stereo not drawn) [Example 539] |  |  |  | > 100 µM | 18.5 µM | > 100 µM | 
23 | Nc1nc2cc(-c3cc[nH]n3)ccc2c2[nH]c(CN[C@H]3CC[C@@H](CO)C3)cc12 [Example 478] |  |  |  | > 100 µM | 0.35 µM | > 100 µM | 
24 | Nc1nc2cc(-c3cc[nH]n3)ccc2c2[nH]c(CN[C@H]3CCOC3)c(Cl)c12 [Example 487] |  |  |  | > 100 µM | 0.37 µM | > 100 µM | 
25 | N#CCCn1cc2c(N)nc3cc(-n4cccn4)ccc3c2n1 [Example 557] |  |  |  | > 100 µM | 0.42 µM | > 100 µM | 
26 | Nc1nc2cc(-c3ccn[nH]3)ccc2c2[nH]c(CCNC(=O)c3ccccn3)cc12 [Example 155, N-[2-[4-amino-7-(1H-pyrazol-5-yl)-1H-pyrrolo[3,2-c]quinolin-2-yl]ethyl]pyridine-2-carboxamide] | > 100 µM |  | > 100 µM |  |  |  | 0.01 µM
27 | Nc1nc2cc(-c3ccn[nH]3)ccc2c2[nH]c(CN3CCOCC3)cc12 [Example 411, 2-[(morpholin-4-yl)methyl]-7-(1H-pyrazol-5-yl)-1H-pyrrolo[3,2-c]quinolin-4-amine] |  |  |  | > 100 µM | 0.64 µM | > 100 µM | 
28 | Nc1nc2cc(-c3cc[nH]n3)ccc2c2nn(C3CCC(O)C3)cc12 (stereo not drawn) [Example 339] | > 100 µM |  | > 100 µM |  |  |  | 0.21 µM
29 | Nc1nc2cc(-c3cc[nH]n3)ccc2c2cn(CCCOc3ccccc3F)nc12 [Example 7] | > 100 µM |  | > 100 µM |  |  |  | 0.42 µM
30 | COC1CCN(C(=O)C(C)n2cc3c(N)nc4cc(-c5ccn[nH]5)ccc4c3n2)CC1 (stereo not drawn) [Example 564] |  |  |  | > 100 µM | 15.5 µM | > 100 µM | 
31 | CC(=O)NCCCc1nc2c(N)nc3cc(-c4ccn[nH]4)ccc3c2s1 [Example 139, N-[3-[4-amino-7-(1H-pyrazol-5-yl)-[1,3]thiazolo[4,5-c]quinolin-2-yl]propyl]acetamide] | > 100 µM |  | > 100 µM |  |  |  | 7.8 µM
